Measurements: US7056506B2, “Methods for detecting and inhibiting angiogenesis” (The Regents of the University of California, priority 1998, dated 2006)
Entries after “also recorded” stand apart in the source; their conditions may differ.

What was measured:
[1] = target: T1, integrin α5β1 (Homo sapiens, UniProt P05556+P08648); test: Integrin receptor ligand binding assay (biotinylated fibronectin); details: fibronectin as ligand
T1 construct: Integrin αVβ3 and α5β1 receptor purified from human placenta were obtained from Chemicon International; purchased Chemicon International; host or cells: purified from human placenta (natural tissue)
Method: (§1) Integrin αVβ3 and α5β1 receptor purified from human placenta were obtained from Chemicon International. Platelet integrin αIIbβ3 was purified from platelets according to established procedures. Receptors were coated (100 μl/well) on Costar (3590) high capacity binding plates overnight at 4° C. Coating solution was discarded and plates were washed once with blocking/binding (B/B) buffer (50 mM Tris HCl, pH 7.4, 100 mM NaCl, 2 mM CaCl, 1 mM MgCl2, 1 mM MnCl2 and 1% BSA).
(§2) One hundred ten microliters of B/B buffer was applied for 60 min at RT. Thirty μl of biotinylated extracellular matrix protein ligand (fibronectin for integrin α5β1, vitronectin for integrin αVβ3 and fibrinogen for integrin αIIbβ3) plus 50 μl of either SJ749 in B/B buffer or B/B buffer alone were added to each well, and incubated for 25 min at RT. Plates were washed twice with B/B buffer and incubated 1 hr at RT, with anti-biotin alkaline phosphatase (100 μl/well) in B/B buffer. Finally, plates were washed twice with B/B followed by the addition of 100 μl of phosphatase substrate (1.5 mg/ml). Reaction was stopped by adding 2N NaOH (25 μl/well), and the developed color was read at 405 nm.

[2] = tested on: chick embryo fibroblasts (CEF's); test: Cell adhesion assay, adhesion to fibronectin; type: cell-based
Excerpt: (§3) HT29 integrin α5β1^+ cells, integrin α5β1^− colon carcinoma cells (Varner et al., Mol. Biol. Cell 6:725–740 (1995)), and chick embryo fibroblasts (CEF's) were maintained in DMEM high glucose supplemented with 10% fetal bovine serum (FBS) and gentamycin. Human umbilical vein endothelial cells (HUVEC's) were maintained in M199 medium containing sodium bicarbonate, HEPES, heparin, endothelial cell growth supplement, 20% FBS and gentamycin. Culture media and reagents were from Irvine Scientific (Irvine, Calif.).
(§4) The wells of 48 well culture dishes (Costar, Inc.) were coated with 1 μg/ml vitronectin, 2 μg/ml fibronectin (chick embryo fibroblasts and HUVEC's) or 10 μg/ml fibronectin (HT29-α5^+ cells) for 1 hr at 37° C., then blocked with 2% heat denatured BSA in PBS for 1 hr. Fifty thousand cells in 250 μl of adhesion buffer were added to triplicate wells containing 250 μl of a solution of 50 μg/ml of an anti-α5β1 function blocking antibody (NKI-SAM-1, JBS5 or IIA1), 50 μg/ml of an anti-α5β1 non-function blocking antibody (HA5 or VC5; Pharmingen, Inc.; San Diego Calif.), 10 μM cyclic peptides (Koivunen et al., J. Biol. Chem. 268:20205–20210 (1993); Koivunen et al., J. Cell Biol. 124:373380 (1994)), 0–10 μM SJ749 ((S)-2-{(2,4,6-trimethylphenyl)sulfonyl}amino-3{7-benzyloxycarbonyl-8-(2-pyridinylaminomethyl)-1-oxa-2,7-diazaspiro-{4,4}-non-2-en-3-yl}carbonylamino}propionic acid)), 50 μg/ml of LM609, an anti-αVβ3 function blocking antibody, 50 μg/ml P4C10, an anti-β1 function blocking antibody, 50 μg/ml of an anti-fibronectin cell binding domain monoclonal antibody or 50 μg/ml of an anti-fibronectin N-terminus monoclonal antibody in adhesion buffer (HEPES buffered Hanks balanced salt solution, HBSS, containing 1% BSA, 2 mM MgCl2, 2 mM CaCl2 and 0.2 mM MnCl2).
(§5) Cells were allowed to adhere to dishes for 20 min at 37° C. Nonadherent cells were removed by washing each well four times with 500 μl of warm adhesion buffer. Adherent cells were then fixed for 15 min with 3.7% paraformaldehyde in PBS and stained with a 2% crystal violet solution. After extensive water washing to remove excess crystal violet, plates were dried overnight. Crystal violet was extracted by incubation for 15 min in 10% acetic acid and absorbance at 562 nm determined as an indicator of number of cells bound. Each experiment was performed in triplicate, with triplicate samples per condition.

[3] = tested on: Human umbilical vein endothelial cells (HUVEC's); test: Cell adhesion assay, adhesion to fibronectin; type: cell-based
Excerpt: as §3, §4, §5

[4] = tested on: growth factor-induced angiogenesis in chick embryos; test: Chick CAM angiogenesis assay, systemic administration, growth factor not specified; type: in vivo; details: chick embryo, read-out: amount inhibiting angiogenesis by 50% (converted)
Excerpt: Ten day old embryonated chicken eggs (McIntyre Poultry; Ramona Calif.) were candled to illuminate blood vessels under the shell and an area with a minimum of small blood vessels is identified. The CAM was dropped away from the eggshell in this area by grinding a small hole in the mineralized shell and applying pressure to the underlying inner shell membrane. This procedure caused an air pocket to shift from the wide end of the egg to the identified area and forcing a circular region of the CAM approximately 2 cm in diameter to drop away from the shell. […]
Fibronectin, vitronectin and fibronectin fragments (59 pmol in a final volume of 25 μl) were applied to stimulated or unstimulated CAM's. […] Blood vessel branch points in the 5 mm filter disk area were counted at 30× magnification in a blinded fashion as a size-independent quantitative indicator of vascular sprouting in response to growth factors. […] Thus, counting of blood vessel branch points is a useful quantitative means of obtaining an angiogenic index (Brooks et al., In “Methods in Molecular Biology” (Humana Press 1999). At least ten embryos were used per treatment group. Each experiment was performed a minimum of three times.
Data was evaluated in terms of average number of blood vessel branch points per treatment group +/−standard error of measurement . […]

[5] = tested on: HUVEC's; test: Cell migration assay on fibronectin; type: cell-based, human
Method: The lower side of 8 μm pore transwell inserts (Costar, Inc.) were coated with 2 μg/ml of fibronectin, collagen (Collaborative Biomedical Products; Bedford Mass.) or no protein for 1 hr and were blocked with 2% BSA in PBS for 1 hr. The inserts then were placed into 24 well culture dishes containing 500 μl migration buffer in the lower chamber. Twenty-five thousand HUVEC's in 50 μl of migration buffer (HEPES buffered M199 medium containing 1% BSA, 2 mM MgCl2, 2 mM CaCl2 and 0.2 mM MnCl2) were added to the upper chamber of duplicate inserts containing 50 μl of a solution of 50 μg/ml of anti-α5β1 function blocking antibody (NKI-SAM-1, JBS5 or IIA1), 50 μg/ml of anti-α5β1 non-function blocking antibody (HA5 or VC5), or 50 μg/ml of LM609 (an anti-αVβ3 function blocking antibody) in migration buffer, or migration buffer alone.
Cells were allowed to migrate from the upper to the lower chamber for 4 hr at 37° C. Nonmigratory cells were removed from the upper surface by wiping the upper side with an absorbant tip, and cells that had migrated to the lower side of the transwell insert were fixed for 15 min with 3.7% paraformaldehyde in PBS, then stained with a 2% crystal violet solution. After extensive water washing to remove excess crystal violet, the number of cells that had migrated were counted in three representative high power (200×) fields per insert. […]

[6] = tested on: HT29 colon carcinoma cells lacking α5β1 expression; test: Chick CAM tumor assay, HT29; type: in vivo; details: HT29 tumors on CAM
Method: The chick CAM tumor assay was performed by placing ten million tumor cells on the surface of a CAM, and culturing the cells for one week. The resulting tumors were excised and cut into 50 mg fragments. […] Forty-eight hours later, CAM's were excised from the egg and the number of blood vessels entering the tumors were counted (as vessel branch points).
Data was presented as mean blood vessel number per treatment group (+/− standard error of measurement). Each treatment group incorporated at least ten tumors per experiment. Representative tumors were photographed at 10× magnification. Tumors were excised from the egg and tumor weights were determined for each tumor Data was presented as mean tumor weight per treatment group (+/− standard error of measurement). Statistical analyses were performed using Student's t-test.
HT29 colon carcinoma cells lacking α5β1 expression were grown on the CAM's of 10-day old embryos. These tumor cells secrete several angiogenic growth factors, including VEGF, TGFα, TGFβ, TNFα, and IL-8 (Anzano et al., Cancer Res. 49:2898–2904 (1989); Varner et. al., supra, 1995; Ellis et al., J. Biol. Chem. 273:1052–1057 (1998)). Integrin α5β1 negative tumor cells were used to distinguish the potential anti-tumor effects from anti-vasculature effects of integrin α5β1 antagonists.

[7] = tested on: bFGF-induced angiogenesis on the chick CAM; test: In ovo chick CAM angiogenesis assay, bFGF stimulated; type: in vivo; details: bFGF stimulated CAM
Excerpt: (§6) Ten day old embryonated chicken eggs (McIntyre Poultry; Ramona Calif.) were candled to illuminate blood vessels under the shell and an area with a minimum of small blood vessels is identified. The CAM was dropped away from the eggshell in this area by grinding a small hole in the mineralized shell and applying pressure to the underlying inner shell membrane. This procedure caused an air pocket to shift from the wide end of the egg to the identified area and forcing a circular region of the CAM approximately 2 cm in diameter to drop away from the shell. A window was cut in the egg shell and a cortisone acetate pre-treated filter disc 5 mm in diameter that had been saturated in 1 μg/ml bFGF, VEGF, TNFα, IL-8 (Genzyme, Inc.; Cambridge Mass.) or saline was placed on the CAM. The window in the shell was sealed with adhesive tape and the egg was incubated for four days.
(§7) Anti-fibronectin antibodies (25 μg in 25 μl) also were applied topically to the CAM.
(§8) Fibronectin, vitronectin and fibronectin fragments (59 pmol in a final volume of 25 μl) were applied to stimulated or unstimulated CAM's. Peptide or small molecule antagonists of α5β1 (at a final serum concentration of 0–25 μM) also were injected intravenously into the chick circulation 24 hr later. CAM's were harvested on the fourth day of stimulation. Blood vessel branch points in the 5 mm filter disk area were counted at 30× magnification in a blinded fashion as a size-independent quantitative indicator of vascular sprouting in response to growth factors. Angiogenesis is characterized by the sprouting of new vessels in response to growth factors. Thus, counting of blood vessel branch points is a useful quantitative means of obtaining an angiogenic index (Brooks et al., In “Methods in Molecular Biology” (Humana Press 1999). At least ten embryos were used per treatment group. Each experiment was performed a minimum of three times.
(§9) Data was evaluated in terms of average number of blood vessel branch points per treatment group +/−standard error of measurement . Statistical analyses were performed using Student's t-test. Representative CAMS from each treatment group were photographed at 10X magnification. In some cases, CAM tissue excised from the egg was frozen in OCT (Baxter; McGraw Park Ill.) in liquid nitrogen, cut into 5 μm sections, air dried and processed for immunohistochemical analysis as described in Example I, except without fixation.

[8] = target: T2, integrin αVβ3 (Homo sapiens, UniProt P05106+P06756); test: Integrin receptor ligand binding assay (biotinylated vitronectin); details: vitronectin as ligand
T2 construct: Integrin αVβ3 and α5β1 receptor purified from human placenta were obtained from Chemicon International; purchased Chemicon International; host or cells: purified from human placenta (natural tissue)
Method: as §1, §2

[9] = tested on: α5^+ HT29 cells; test: Cell adhesion assay, adhesion to fibronectin; type: cell-based, human
Excerpt: as §3, §4
Cells were allowed to adhere to dishes for 20 min at 37° C. Nonadherent cells were removed by washing each well four times with 500 μl of warm adhesion buffer. […] Crystal violet was extracted by incubation for 15 min in 10% acetic acid and absorbance at 562 nm determined as an indicator of number of cells bound. […]

[10] = tested on: VEGF-induced angiogenesis on the chick CAM; test: In ovo chick CAM angiogenesis assay, VEGF stimulated; type: in vivo; details: VEGF stimulated CAM
Excerpt: as §6, §7, §8, §9

[11] = tested on: α5^+ HT29 colon carcinoma cells, CEF's and HUVEC's; test: Cell adhesion assay, attachment to vitronectin; type: cell-based; details: vitronectin coating
Excerpt: as §3
The wells of 48 well culture dishes (Costar, Inc.) were coated with 1 μg/ml vitronectin, 2 μg/ml fibronectin (chick embryo fibroblasts and HUVEC's) or 10 μg/ml fibronectin (HT29-α5^+ cells) for 1 hr at 37° C., then blocked with 2% heat denatured BSA in PBS for 1 hr. […]
Cells were allowed to adhere to dishes for 20 min at 37° C. […] Crystal violet was extracted by incubation for 15 min in 10% acetic acid and absorbance at 562 nm determined as an indicator of number of cells bound. […]

T1 sequence (P08648 42-894 limits assumed): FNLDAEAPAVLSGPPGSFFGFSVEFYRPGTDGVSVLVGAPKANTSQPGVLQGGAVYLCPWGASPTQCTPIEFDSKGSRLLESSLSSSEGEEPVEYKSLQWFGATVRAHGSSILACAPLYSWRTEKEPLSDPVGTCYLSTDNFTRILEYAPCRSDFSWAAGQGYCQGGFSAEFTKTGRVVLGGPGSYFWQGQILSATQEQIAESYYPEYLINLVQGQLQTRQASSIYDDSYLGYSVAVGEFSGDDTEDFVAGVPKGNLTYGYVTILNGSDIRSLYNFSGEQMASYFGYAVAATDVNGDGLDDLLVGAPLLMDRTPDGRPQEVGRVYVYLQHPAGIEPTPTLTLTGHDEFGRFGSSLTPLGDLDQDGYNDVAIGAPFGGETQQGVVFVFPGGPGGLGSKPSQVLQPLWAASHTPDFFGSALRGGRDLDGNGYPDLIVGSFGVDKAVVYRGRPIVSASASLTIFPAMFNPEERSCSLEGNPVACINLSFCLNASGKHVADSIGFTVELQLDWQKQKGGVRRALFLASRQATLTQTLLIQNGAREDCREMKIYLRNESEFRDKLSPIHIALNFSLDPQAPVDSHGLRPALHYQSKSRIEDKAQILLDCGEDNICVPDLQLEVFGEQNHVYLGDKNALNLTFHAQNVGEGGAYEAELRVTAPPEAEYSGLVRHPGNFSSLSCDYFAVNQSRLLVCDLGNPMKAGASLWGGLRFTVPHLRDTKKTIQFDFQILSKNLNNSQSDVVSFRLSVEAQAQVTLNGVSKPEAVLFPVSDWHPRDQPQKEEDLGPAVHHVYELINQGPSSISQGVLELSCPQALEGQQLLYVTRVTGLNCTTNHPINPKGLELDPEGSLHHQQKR
T1 sequence (P08648 895-1049 partner limits assumed): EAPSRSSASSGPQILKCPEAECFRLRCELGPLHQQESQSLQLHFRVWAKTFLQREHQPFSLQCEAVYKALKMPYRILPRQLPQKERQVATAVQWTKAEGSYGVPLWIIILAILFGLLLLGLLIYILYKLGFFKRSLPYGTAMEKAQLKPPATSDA
T1 sequence (P05556 21-798): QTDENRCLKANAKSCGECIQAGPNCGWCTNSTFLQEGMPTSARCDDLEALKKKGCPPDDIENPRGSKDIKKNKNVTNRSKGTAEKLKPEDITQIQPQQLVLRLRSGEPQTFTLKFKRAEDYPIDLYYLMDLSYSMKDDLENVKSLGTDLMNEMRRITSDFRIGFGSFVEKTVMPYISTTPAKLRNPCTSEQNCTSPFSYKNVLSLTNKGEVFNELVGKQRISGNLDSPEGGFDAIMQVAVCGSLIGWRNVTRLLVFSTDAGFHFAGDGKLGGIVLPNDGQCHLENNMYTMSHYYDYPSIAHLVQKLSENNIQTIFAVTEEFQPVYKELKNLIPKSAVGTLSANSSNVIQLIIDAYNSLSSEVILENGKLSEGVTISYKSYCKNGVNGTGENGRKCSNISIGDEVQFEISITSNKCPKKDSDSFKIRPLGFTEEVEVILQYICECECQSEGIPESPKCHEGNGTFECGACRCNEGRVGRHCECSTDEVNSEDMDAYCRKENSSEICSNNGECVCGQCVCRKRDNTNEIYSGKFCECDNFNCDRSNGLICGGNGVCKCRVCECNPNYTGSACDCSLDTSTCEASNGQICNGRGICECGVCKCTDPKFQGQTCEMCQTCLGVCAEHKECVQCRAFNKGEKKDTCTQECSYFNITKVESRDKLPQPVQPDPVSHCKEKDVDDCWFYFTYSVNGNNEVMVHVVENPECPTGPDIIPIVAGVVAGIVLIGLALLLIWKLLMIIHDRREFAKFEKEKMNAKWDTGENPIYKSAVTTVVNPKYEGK
T2 sequence (P06756 31-889 limits assumed): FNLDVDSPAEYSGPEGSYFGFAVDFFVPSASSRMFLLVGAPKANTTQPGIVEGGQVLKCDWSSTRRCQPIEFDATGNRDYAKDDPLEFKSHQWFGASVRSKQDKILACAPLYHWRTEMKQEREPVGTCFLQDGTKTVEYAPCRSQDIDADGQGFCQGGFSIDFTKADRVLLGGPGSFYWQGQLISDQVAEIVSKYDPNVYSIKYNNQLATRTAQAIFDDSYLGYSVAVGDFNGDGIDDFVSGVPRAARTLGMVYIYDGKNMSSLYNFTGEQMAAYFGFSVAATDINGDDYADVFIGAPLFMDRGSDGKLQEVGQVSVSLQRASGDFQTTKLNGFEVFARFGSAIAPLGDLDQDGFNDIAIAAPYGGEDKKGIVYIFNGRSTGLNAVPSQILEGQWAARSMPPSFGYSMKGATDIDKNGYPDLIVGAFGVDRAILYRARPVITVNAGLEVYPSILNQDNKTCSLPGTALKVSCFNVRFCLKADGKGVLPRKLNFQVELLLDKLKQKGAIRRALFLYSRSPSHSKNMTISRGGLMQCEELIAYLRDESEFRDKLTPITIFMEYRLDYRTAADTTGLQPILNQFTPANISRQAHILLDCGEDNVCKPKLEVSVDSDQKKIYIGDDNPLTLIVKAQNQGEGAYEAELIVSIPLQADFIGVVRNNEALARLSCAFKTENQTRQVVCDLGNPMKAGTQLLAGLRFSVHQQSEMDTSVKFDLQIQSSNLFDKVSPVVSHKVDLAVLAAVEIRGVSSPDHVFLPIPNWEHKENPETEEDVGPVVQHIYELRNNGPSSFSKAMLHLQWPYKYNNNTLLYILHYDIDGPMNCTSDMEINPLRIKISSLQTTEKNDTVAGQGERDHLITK
T2 sequence (P06756 891-1048 partner limits assumed): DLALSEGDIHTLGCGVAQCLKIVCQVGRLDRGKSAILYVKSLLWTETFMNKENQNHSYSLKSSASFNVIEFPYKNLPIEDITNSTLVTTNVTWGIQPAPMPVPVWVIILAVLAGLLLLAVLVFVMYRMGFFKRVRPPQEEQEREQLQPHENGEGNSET
T2 sequence (P05106 27-788): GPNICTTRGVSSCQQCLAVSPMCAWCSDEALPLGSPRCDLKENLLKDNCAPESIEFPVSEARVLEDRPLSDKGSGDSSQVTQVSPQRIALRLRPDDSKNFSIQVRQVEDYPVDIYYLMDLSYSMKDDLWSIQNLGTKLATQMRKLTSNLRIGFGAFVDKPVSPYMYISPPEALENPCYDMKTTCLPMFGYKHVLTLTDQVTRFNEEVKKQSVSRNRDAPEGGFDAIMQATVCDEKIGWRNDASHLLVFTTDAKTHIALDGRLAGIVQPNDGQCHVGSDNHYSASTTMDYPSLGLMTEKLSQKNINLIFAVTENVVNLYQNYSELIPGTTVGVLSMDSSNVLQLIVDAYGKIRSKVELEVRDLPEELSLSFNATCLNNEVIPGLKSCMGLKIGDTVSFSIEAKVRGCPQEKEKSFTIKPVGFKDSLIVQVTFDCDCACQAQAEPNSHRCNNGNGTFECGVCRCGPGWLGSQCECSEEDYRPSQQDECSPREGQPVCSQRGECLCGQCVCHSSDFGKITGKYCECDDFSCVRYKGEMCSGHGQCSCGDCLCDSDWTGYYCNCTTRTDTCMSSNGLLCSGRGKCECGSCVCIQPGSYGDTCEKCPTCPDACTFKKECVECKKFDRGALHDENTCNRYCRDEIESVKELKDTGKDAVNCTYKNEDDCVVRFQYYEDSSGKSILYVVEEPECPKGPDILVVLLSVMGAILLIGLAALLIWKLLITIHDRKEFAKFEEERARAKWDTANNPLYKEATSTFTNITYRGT

Molecule	effect on ligand binding to α5β1 [1]	effect on adhesion to fibronectin [2]	effect on adhesion to fibronectin [3]	IC50 [4] [nM]	effect on endothelial cell migration on fibronectin [5]	effect on tumor size [6]	effect on bFGF-induced angiogenesis [7]	effect on ligand binding to αVβ3 and other integrins [8]	effect on adhesion to fibronectin [9]	effect on VEGF angiogenesis [10]	effect on cell attachment to vitronectin [11]
Cc1cc(C)c(S(=O)(=O)N[C@@H](CNC(=O)C2=NOC3(C2)CC(CNc2ccccn2)N(C(=O)OCc2ccccc2)C3)C(=O)O)c(C)c1 (some centres unmarked) [SJ749]	selectively inhibited; also recorded: interfered	blocked	blocked	7.5	highly effective	induced tumor regression	blocked; also recorded: dose dependent inhibitory effect; also recorded: reduced or inhibited angiogenesis in a dose dependent manner	substantially less effective	inhibitory effect	did not block	ineffective
CATAERWRC ["scrambled" control peptide]		little effect	little effect			continued to increase in size	did not inhibit		little effect		little effect
